Each structure is given as a SMILES string. Starred links: 1 amine or outer side, 2 acyl side, 3 side chain; linkers in the order of their positions; H or OH if unused. Positions of bridges follow the written chain, without caps; N, C: chain ends. Non-standard residues stand in square brackets, D forms with d. Residues, ends and D or L forms follow the SMILES beside them. γGlu = O=C(O)[C@H](CCC(=O)[*:2])N[*:1]; NMeL = CN[C@@H](CC(C)C)C(=O)O; Ahp(2) = CCCCC[C@H](N)C(=O)O; NMeNle = CCCC[C@H](NC)C(=O)O; Tle = CC(C)(C)[C@H](N)C(=O)O; NMeV = CN[C@H](C(=O)O)C(C)C; NHexGly = CCCCCCNCC(=O)O; Orn = NCCC[C@H](N)C(=O)O; Aun = NCCCCCCCCCCC(=O)O

What is called IC50 is the concentration at which inhibition is half-maximal.

This test concerns the target T1, mouse VISTA (mVISTA) (Mus musculus, UniProt Q9D659).
T1 construct: expressed in transfected cells; host or cells: Human embryonic kidney 293T cells
T1 sequence (Q9D659 33-308): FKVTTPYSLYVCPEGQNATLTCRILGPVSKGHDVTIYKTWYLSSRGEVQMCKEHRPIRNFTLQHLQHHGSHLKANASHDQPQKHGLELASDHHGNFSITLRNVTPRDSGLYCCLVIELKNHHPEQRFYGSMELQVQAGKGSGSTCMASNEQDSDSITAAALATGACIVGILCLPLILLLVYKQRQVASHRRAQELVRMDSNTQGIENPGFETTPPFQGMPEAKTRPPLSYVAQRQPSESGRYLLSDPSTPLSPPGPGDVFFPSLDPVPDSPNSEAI
The test can be described thus: Cell-Based Binding High-Content Assay For mVISTA (HC CBA mVISTA). The note with it: read-out: HC CBA mVISTA IC50. The gist of the method: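 Read-out: Alexa 647–streptavidin signal imaged on fixed, Hoechst-stained mVISTA-293T cells, with IC50 taken from a four-parameter logistic curve. Compounds competed with 2 nM biotinylated peptide for 30 min at room temperature, tested under both no-wash and wash (1 h compound, media exchange, 1 h) formats.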

For the molecule `CCCCCCN1CC(=O)N[C@@H](Cc2ccc(O)cc2)C(=O)N[C@@H](CC(C)C)C(=O)N[C@@H](CC(N)=O)C(=O)N[C@@H](CCCNC(=N)N)C(=O)N(C)[C@@H](CCCC)C(=O)N[C@@H](CCCCC)C(=O)N2CCC[C@H]2C(=O)N[C@@H](C(C)(C)C)C(=O)N[C@@H](CO)C(=O)N[C@H](C(=O)N[C@@H](CCC(=O)NCCCCCCCCCCC(=O)O)C(=O)O)CSCC(=O)N[C@@H](Cc2ccccc2)C(=O)N[C@@H](Cc2c[nH]c3ccccc23)C(=O)N[C@@H](CC(=O)O)C1=O` [Example 2131] ({CH2CO}-FWD[NHexGly]YLNR[NMeNle][Ahp(2)]P[Tle]SC[γGlu][Aun]-OH; thioether N-14), the IC50 was 38 nM. With `CCCCCCN1CC(=O)N[C@@H](Cc2ccc(O)cc2)C(=O)N[C@@H](CC(C)C)C(=O)N[C@@H](CC(N)=O)C(=O)N[C@@H](CCCN)C(=O)N(C)[C@@H](CCCC)C(=O)N[C@@H](CCCCC)C(=O)N2CCC[C@H]2C(=O)N[C@@H](C(C)(C)C)C(=O)N[C@@H](CO)C(=O)N[C@H](C(=O)N[C@@H](CCC(=O)NCCCCCCCCCCC(=O)O)C(=O)O)CSCC(=O)N[C@@H](Cc2ccccc2)C(=O)N[C@@H](Cc2ccc(O)cc2)C(=O)N[C@@H](CC(=O)O)C1=O` [Example 2132] ({CH2CO}-FYD[NHexGly]YLN[Orn][NMeNle][Ahp(2)]P[Tle]SC[γGlu][Aun]-OH; thioether N-14) the figure was 23.5 nM; with `CCCCCCN1CC(=O)N[C@@H](Cc2ccc(O)cc2)C(=O)N[C@@H](CC(C)C)C(=O)N[C@@H](CC(N)=O)C(=O)N[C@@H](CCCNC(=N)N)C(=O)N(C)[C@@H](C(C)C)C(=O)N[C@@H](CCCCC)C(=O)N2CCC[C@H]2C(=O)N[C@@H](C(C)(C)C)C(=O)N[C@@H](CO)C(=O)N[C@H](C(=O)N[C@@H](CCC(=O)NCCCCCCCCCCC(=O)O)C(=O)O)CSCC(=O)N[C@@H](Cc2ccccc2)C(=O)N[C@@H](Cc2ccc(O)cc2)C(=O)N[C@@H](CC(=O)O)C1=O` [Example 2133] ({CH2CO}-FYD[NHexGly]YLNR[NMeV][Ahp(2)]P[Tle]SC[γGlu][Aun]-OH; thioether N-14), 24 nM; with `CCCCCCN1CC(=O)N[C@@H](Cc2ccc(O)cc2)C(=O)N[C@@H](CC(C)C)C(=O)N[C@@H](CC(N)=O)C(=O)N[C@@H](CCCN)C(=O)N(C)[C@@H](CCCC)C(=O)N[C@@H](CCCCC)C(=O)N2CCC[C@H]2C(=O)N[C@@H](C(C)(C)C)C(=O)N[C@@H](CO)C(=O)N[C@H](C(=O)N[C@@H](CCC(=O)NCCCCCCCCCCC(=O)O)C(=O)O)CSCC(=O)N[C@@H](Cc2ccccc2)C(=O)N[C@@H](Cc2c[nH]c3ccccc23)C(=O)N[C@@H](CC(=O)O)C1=O` [Example 2134] ({CH2CO}-FWD[NHexGly]YLN[Orn][NMeNle][Ahp(2)]P[Tle]SC[γGlu][Aun]-OH; thioether N-14), 21.7 nM. With `CCCCCCN1CC(=O)N[C@@H](Cc2ccc(O)cc2)C(=O)N[C@@H](CC(C)C)C(=O)N[C@@H](CC(N)=O)C(=O)N[C@@H](CCCNC(=N)N)C(=O)N(C)[C@@H](CC(C)C)C(=O)N[C@@H](CCCCC)C(=O)N2CCC[C@H]2C(=O)N[C@@H](C(C)(C)C)C(=O)N[C@@H](CO)C(=O)N[C@H](C(=O)N[C@@H](CCC(=O)NCCCCCCCCCCC(=O)O)C(=O)O)CSCC(=O)N[C@@H](Cc2ccccc2)C(=O)N[C@@H](Cc2ccc(O)cc2)C(=O)N[C@@H](CC(=O)O)C1=O` [Example 2135] ({CH2CO}-FYD[NHexGly]YLNR[NMeL][Ahp(2)]P[Tle]SC[γGlu][Aun]-OH; thioether N-14), the IC50 is 31 nM. To `CCCCCCN1CC(=O)N[C@@H](Cc2ccc(O)cc2)C(=O)N[C@@H](CC(C)C)C(=O)N[C@@H](CC(N)=O)C(=O)N[C@@H](CCCNC(=N)N)C(=O)N(C)[C@@H](CCCC)C(=O)N[C@@H](CCCCC)C(=O)N2CCC[C@H]2C(=O)N[C@@H](C(C)(C)C)C(=O)N[C@@H](CO)C(=O)N[C@H](C(=O)N[C@@H](CCC(=O)NCCCCCCCCCCC(=O)O)C(=O)O)CSCC(=O)N[C@@H](Cc2ccccc2)C(=O)N[C@@H](Cc2ccc(O)cc2)C(=O)N[C@@H](CC(=O)O)C1=O` [Example 2136] ({CH2CO}-FYD[NHexGly]YLNR[NMeNle][Ahp(2)]P[Tle]SC[γGlu][Aun]-OH; thioether N-14) belongs 19.8 nM. To `CCCCCCN1CC(=O)N[C@@H](Cc2ccc(O)cc2)C(=O)N[C@@H](CC(C)C)C(=O)N[C@@H](CC(N)=O)C(=O)N[C@@H](CCCN)C(=O)N(C)[C@@H](C(C)C)C(=O)N[C@@H](CCCCC)C(=O)N2CCC[C@H]2C(=O)N[C@@H](C(C)(C)C)C(=O)N[C@@H](CO)C(=O)N[C@H](C(=O)N[C@@H](CCC(=O)NCCCCCCCCCCC(=O)O)C(=O)O)CSCC(=O)N[C@@H](Cc2ccccc2)C(=O)N[C@@H](Cc2ccc(O)cc2)C(=O)N[C@@H](CC(=O)O)C1=O` [Example 2137] ({CH2CO}-FYD[NHexGly]YLN[Orn][NMeV][Ahp(2)]P[Tle]SC[γGlu][Aun]-OH; thioether N-14) belongs 18 nM.

On to `CCCCCCN1CC(=O)N[C@@H](Cc2ccc(O)cc2)C(=O)N[C@@H](CC(C)C)C(=O)N[C@@H](CC(N)=O)C(=O)N[C@@H](CCCN)C(=O)N(C)[C@@H](CC(C)C)C(=O)N[C@@H](CCCCC)C(=O)N2CCC[C@H]2C(=O)N[C@@H](C(C)(C)C)C(=O)N[C@@H](CO)C(=O)N[C@H](C(=O)N[C@@H](CCC(=O)NCCCCCCCCCCC(=O)O)C(=O)O)CSCC(=O)N[C@@H](Cc2ccccc2)C(=O)N[C@@H](Cc2ccc(O)cc2)C(=O)N[C@@H](CC(=O)O)C1=O` [Example 2138] ({CH2CO}-FYD[NHexGly]YLN[Orn][NMeL][Ahp(2)]P[Tle]SC[γGlu][Aun]-OH; thioether N-14), for which the IC50 came out at 33 nM. Turning to `CCCCCCN1CC(=O)N[C@@H](Cc2ccc(O)cc2)C(=O)N[C@@H](CCCCN)C(=O)N[C@@H](CC(N)=O)C(=O)N[C@@H](CCCN)C(=O)N(C)[C@@H](CCCC)C(=O)N[C@@H](CCCCC)C(=O)N2CCC[C@H]2C(=O)N[C@@H](C(C)(C)C)C(=O)N[C@@H](CO)C(=O)N[C@H](C(=O)N[C@@H](CCC(=O)NCCCCCCCCCCC(=O)O)C(=O)O)CSCC(=O)N[C@@H](Cc2ccccc2)C(=O)N[C@@H](Cc2ccc(O)cc2)C(=O)N[C@@H](CC(=O)O)C1=O` [Example 2139] ({CH2CO}-FYD[NHexGly]YKN[Orn][NMeNle][Ahp(2)]P[Tle]SC[γGlu][Aun]-OH; thioether N-14), the IC50 is 45.7 nM.

For the molecule `CCCCCCN1CC(=O)N[C@@H](Cc2ccc(O)cc2)C(=O)N[C@@H](CCCCN)C(=O)N[C@@H](CC(N)=O)C(=O)N[C@@H](CCCN)C(=O)N(C)[C@@H](CCCC)C(=O)N[C@@H](CCCCC)C(=O)N2CCC[C@H]2C(=O)N[C@@H](C(C)(C)C)C(=O)N[C@@H](CC(=O)O)C(=O)N[C@H](C(=O)N[C@@H](CCC(=O)NCCCCCCCCCCC(=O)O)C(=O)O)CSCC(=O)N[C@@H](Cc2ccccc2)C(=O)N[C@@H](Cc2ccc(O)cc2)C(=O)N[C@@H](CC(=O)O)C1=O` [Example 2140] ({CH2CO}-FYD[NHexGly]YKN[Orn][NMeNle][Ahp(2)]P[Tle]DC[γGlu][Aun]-OH; thioether N-14), the IC50 was found to be 41.9 nM. With `CCCCCCN1CC(=O)N[C@@H](Cc2ccc(O)cc2)C(=O)N[C@@H](CCCCC)C(=O)N[C@@H](CC(N)=O)C(=O)N[C@@H](CCCN)C(=O)N(C)[C@@H](CCCC)C(=O)N[C@@H](CCCCC)C(=O)N2CCC[C@H]2C(=O)N[C@@H](C(C)(C)C)C(=O)N[C@@H](CC(=O)O)C(=O)N[C@H](C(=O)N[C@@H](CCC(=O)NCCCCCCCCCCC(=O)O)C(=O)O)CSCC(=O)N[C@@H](Cc2ccccc2)C(=O)N[C@@H](Cc2ccc(O)cc2)C(=O)N[C@@H](CC(=O)O)C1=O` [Example 2141] ({CH2CO}-FYD[NHexGly]Y[Ahp(2)]N[Orn][NMeNle][Ahp(2)]P[Tle]DC[γGlu][Aun]-OH; thioether N-14) the figure was 26.5 nM; with `CCCCCCN1CC(=O)N[C@@H](Cc2ccc(O)cc2)C(=O)N[C@@H](CCCCC)C(=O)N[C@@H](CC(N)=O)C(=O)N[C@@H](CCCNC(=N)N)C(=O)N(C)[C@@H](CCCC)C(=O)N[C@@H](CCCCC)C(=O)N2CCC[C@H]2C(=O)N[C@@H](C(C)(C)C)C(=O)N[C@@H](CO)C(=O)N[C@H](C(=O)N[C@@H](CCC(=O)NCCCCCCCCCCC(=O)O)C(=O)O)CSCC(=O)N[C@@H](Cc2ccccc2)C(=O)N[C@@H](Cc2ccc(O)cc2)C(=O)N[C@@H](CC(=O)O)C1=O` [Example 2142] ({CH2CO}-FYD[NHexGly]Y[Ahp(2)]NR[NMeNle][Ahp(2)]P[Tle]SC[γGlu][Aun]-OH; thioether N-14), 32.5 nM; with `CCCCCCN1CC(=O)N[C@@H](Cc2ccc(O)cc2)C(=O)N[C@@H](CCCCC)C(=O)N[C@@H](CC(N)=O)C(=O)N[C@@H](CCCN)C(=O)N(C)[C@@H](CCCC)C(=O)N[C@@H](CCCCC)C(=O)N2CCC[C@H]2C(=O)N[C@@H](C(C)(C)C)C(=O)N[C@@H](CO)C(=O)N[C@H](C(=O)N[C@@H](CCC(=O)NCCCCCCCCCCC(=O)O)C(=O)O)CSCC(=O)N[C@@H](Cc2ccccc2)C(=O)N[C@@H](Cc2ccc(O)cc2)C(=O)N[C@@H](CC(=O)O)C1=O` [Example 2143] ({CH2CO}-FYD[NHexGly]Y[Ahp(2)]N[Orn][NMeNle][Ahp(2)]P[Tle]SC[γGlu][Aun]-OH; thioether N-14), 29.4 nM.

Take `CCCCCCN1CC(=O)N[C@@H](Cc2ccc(O)cc2)C(=O)N[C@@H](CCCCC)C(=O)N[C@@H](CC(N)=O)C(=O)N[C@@H](CCCN)C(=O)N(C)[C@@H](CCCC)C(=O)N[C@@H](CCCCC)C(=O)N2CCC[C@H]2C(=O)N[C@@H](C(C)(C)C)C(=O)N[C@@H](CO)C(=O)N[C@H](C(=O)N[C@@H](CCC(=O)NCCCCCCCCCCC(=O)O)C(=O)O)CSCC(=O)N[C@@H](Cc2ccccc2)C(=O)N[C@@H](Cc2c[nH]c3ccccc23)C(=O)N[C@@H](CC(=O)O)C1=O` [Example 2144] ({CH2CO}-FWD[NHexGly]Y[Ahp(2)]N[Orn][NMeNle][Ahp(2)]P[Tle]SC[γGlu][Aun]-OH; thioether N-14): the IC50 stood at 39 nM.

Source of the values: US20240218022A1, “ANTI-VISTA MACROCYCLIC PEPTIDES AND COMPOSITIONS” (BRISTOL-MYERS SQUIBB COMPANY, priority 2022, published 2024).
